Here are results for 16 molecules from PubChem BioAssay (NCI).

Some test systems named below: OVCAR-3 ovarian; MDA-MB-435; OVCAR-8 ovarian; SK-MEL-2 melanoma; UO-31 renal; RXF 393 renal; MCF7 breast; RPMI-8226 leukemia; SNB-19 CNS; BT-549 breast.
Common to all, as to test: inhibition of tumour cell growth, NCI panel, 48 h

Structures are written as SMILES.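 Cultured in 96-well plates, cells were exposed to test compound for 48 hours across five concentrations. At the TGI there is no net growth.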

Regarding `CN(CC(=O)O)c1ncc2c(n1)-c1ccccc1CC2`, the TGI in the experiment on OVCAR-3 ovarian, in the experiment on MDA-MB-435, with OVCAR-8 ovarian, with SK-MEL-2 melanoma, with UO-31 renal and in the experiment on RXF 393 renal was over 100 µM each time. Also, the TGI in the experiment with MCF7 breast, with RPMI-8226 leukemia and with SNB-19 CNS was over 100 µM each time.

Regarding `CC1OC23CCCCC2C(C#N)(C#N)C1(C#N)C(=N)O3` (stereo unspecified), the TGI in the experiment with OVCAR-3 ovarian came to 36.5 µM; with MDA-MB-435 it was 50.9 µM; in the experiment with OVCAR-8 ovarian it was 54.1 µM; in the experiment with BT-549 breast it was 34.4 µM; with SK-MEL-2 melanoma it was 43.5 µM; with RXF 393 renal it was 44.5 µM. Also, the TGI is 52.3 µM in the experiment on MCF7 breast and 65.2 µM with SNB-19 CNS.

As to `CC(C)(C)[C@H]1NC(=O)CN1C(=O)OCc1ccccc1`, the TGI with MDA-MB-435, with OVCAR-8 ovarian, with BT-549 breast, with SK-MEL-2 melanoma, in the experiment with UO-31 renal and with RXF 393 renal was over 100 µM in each case. Also, the TGI with MCF7 breast, in the experiment on RPMI-8226 leukemia and in the experiment with SNB-19 CNS was over 100 µM in each case.

Turning to `CCOC(=O)CC1(N)CC2c3ccccc3OC(=O)C2C(=O)N1` (stereo unspecified), the TGI in the experiment with OVCAR-3 ovarian, in the experiment with MDA-MB-435, in the experiment with OVCAR-8 ovarian, in the experiment with BT-549 breast, in the experiment with SK-MEL-2 melanoma and in the experiment on UO-31 renal was over 100 µM in each case. For the same molecule, the TGI in the experiment on RXF 393 renal, in the experiment on RPMI-8226 leukemia and in the experiment on SNB-19 CNS was over 100 µM throughout.

As for `CN=C1C=C(/N=C2/C=C(N/C(=C\C#N)C(C)(C)O)OC2(C)C)OC1(C)C`, the TGI with OVCAR-3 ovarian is over 100 µM; with MDA-MB-435, over 100 µM; in the experiment on OVCAR-8 ovarian it was over 47.2 µM; in the experiment on BT-549 breast, over 77.8 µM; in the experiment with SK-MEL-2 melanoma it was over 82.8 µM; with UO-31 renal, 82.3 µM. Also, the TGI with MCF7 breast is over 100 µM; in the experiment on RPMI-8226 leukemia it was over 69.6 µM; with SNB-19 CNS, over 100 µM.

For `C/C(=C\C(=O)O)C(=O)N(C)c1ccccc1I`, the TGI in the experiment on OVCAR-3 ovarian, with MDA-MB-435, in the experiment on OVCAR-8 ovarian, with SK-MEL-2 melanoma, with UO-31 renal and in the experiment with RXF 393 renal was over 100 µM throughout. The TGI in the experiment with MCF7 breast, with RPMI-8226 leukemia and in the experiment on SNB-19 CNS was over 100 µM throughout.

On to `CN(Cc1ccccc1)C(=S)S`, for which the TGI in the experiment with OVCAR-3 ovarian was over 100 µM; with MDA-MB-435, over 100 µM; with OVCAR-8 ovarian, over 100 µM; with BT-549 breast, over 100 µM; in the experiment on SK-MEL-2 melanoma, over 100 µM; with UO-31 renal, 77.8 µM. Besides, the TGI in the experiment with RXF 393 renal and with MCF7 breast was over 100 µM throughout.

Take `COc1cc(CNc2nc3c(NC(C)=O)cc(C(F)(F)F)cc3nc2-c2ccccc2)cc(OC)c1OC`: the TGI in the experiment on OVCAR-3 ovarian, with OVCAR-8 ovarian, in the experiment with SK-MEL-2 melanoma, in the experiment on UO-31 renal, in the experiment with RXF 393 renal and in the experiment on RPMI-8226 leukemia was over 100 µM each time. Further, the TGI with SNB-19 CNS was over 100 µM.

In the case of `COC(=O)c1sc2c(Cl)c(Cl)sc2c1Cl`, the TGI in the experiment on OVCAR-3 ovarian, in the experiment with MDA-MB-435, with OVCAR-8 ovarian, in the experiment on BT-549 breast, in the experiment with SK-MEL-2 melanoma and in the experiment with UO-31 renal was over 100 µM throughout. In addition, the TGI with RXF 393 renal, with MCF7 breast and in the experiment on SNB-19 CNS was over 100 µM each time.

On to `CCn1c(-c2cc3ccccc3cc2OC(C)=O)n[nH]c1=S`, for which the TGI is 67.8 µM with OVCAR-3 ovarian; over 100 µM in the experiment on MDA-MB-435; over 100 µM in the experiment on OVCAR-8 ovarian; 41.3 µM in the experiment with SK-MEL-2 melanoma; over 100 µM with UO-31 renal; 33.5 µM with RXF 393 renal. Also, the TGI in the experiment with MCF7 breast is over 100 µM; in the experiment with RPMI-8226 leukemia, 44.6 µM.

On to `CC1(c2ccc(Cl)cc2)c2ccccc2C(=O)N1CCCN1C(=O)c2ccccc2C1=O` (stereo unspecified), for which the TGI with OVCAR-3 ovarian is 99.7 µM; with MDA-MB-435 it was over 100 µM; in the experiment on OVCAR-8 ovarian, over 100 µM; with BT-549 breast, over 100 µM; in the experiment on SK-MEL-2 melanoma it was 46.3 µM; with UO-31 renal, over 100 µM. The TGI was 94.5 µM in the experiment with RXF 393 renal, over 100 µM in the experiment with RPMI-8226 leukemia and 78.5 µM in the experiment on SNB-19 CNS.

In the case of `Cc1cc(Br)c(O)c(-c2cscn2)c1`, the TGI in the experiment with OVCAR-3 ovarian is over 100 µM; in the experiment with MDA-MB-435, 41.9 µM; with OVCAR-8 ovarian, 42.1 µM; with BT-549 breast, 24 µM; in the experiment with SK-MEL-2 melanoma, 35.1 µM; in the experiment on UO-31 renal, 25.4 µM. The TGI in the experiment with RPMI-8226 leukemia came to 20.3 µM; in the experiment on SNB-19 CNS it was 31.2 µM.

In the case of `COc1ccc(C=C2C(C)=NN(c3cccc(Cl)c3)C23C(Cl)C(=O)N3c2nc3ccccc3s2)cc1` (stereo unspecified), the TGI in the experiment with OVCAR-3 ovarian worked out at 42.9 µM; in the experiment on MDA-MB-435, 66.8 µM; in the experiment with OVCAR-8 ovarian it was 42 µM; with SK-MEL-2 melanoma, 38.9 µM; in the experiment with UO-31 renal it was 33.4 µM; with RXF 393 renal, 28 µM. The TGI is 61.4 µM in the experiment with MCF7 breast and over 100 µM in the experiment with RPMI-8226 leukemia.

On to `FC(F)(Sc1ncccn1)c1nc2ccccc2o1`, for which the TGI with OVCAR-3 ovarian, in the experiment on MDA-MB-435, with OVCAR-8 ovarian, with BT-549 breast, in the experiment on SK-MEL-2 melanoma and in the experiment with UO-31 renal was over 100 µM in each case. Also, the TGI in the experiment with RXF 393 renal, with MCF7 breast and with RPMI-8226 leukemia was over 100 µM throughout.

Take `N#CC(c1cc(Cl)ncn1)c1nc2cc(C(F)(F)F)ccc2s1` (stereo unspecified): the TGI with OVCAR-3 ovarian is 17.4 µM; in the experiment with MDA-MB-435, over 100 µM; with OVCAR-8 ovarian, 13.5 µM; in the experiment on BT-549 breast it was 9.5 µM; in the experiment on UO-31 renal, 17.8 µM; in the experiment on RXF 393 renal, 19.7 µM. Moreover, the TGI in the experiment on RPMI-8226 leukemia is over 100 µM; with SNB-19 CNS, 22.6 µM.

Turning to `CC(=O)N1CN2C(=O)CCC2c2cc(C)ccc21` (stereo unspecified), the TGI in the experiment with OVCAR-3 ovarian, with MDA-MB-435, with OVCAR-8 ovarian, in the experiment on SK-MEL-2 melanoma, in the experiment on UO-31 renal and in the experiment on RXF 393 renal was over 100 µM in each case. In addition, the TGI in the experiment on MCF7 breast, with RPMI-8226 leukemia and with SNB-19 CNS was over 100 µM in each case.
